Data on 48 compounds can be found in ChEMBL document CHEMBL1142367, “1H-Pyrazolo[3,4-g]hexahydro-isoquinolines as selective glucocorticoid receptor antagonists with high functional activity” (Bioorg Med Chem Lett, 2008).

For data set [1], the target named is T1, Glucocorticoid receptor (Homo sapiens, UniProt P04150).
T1 sequence (P04150 whole entry): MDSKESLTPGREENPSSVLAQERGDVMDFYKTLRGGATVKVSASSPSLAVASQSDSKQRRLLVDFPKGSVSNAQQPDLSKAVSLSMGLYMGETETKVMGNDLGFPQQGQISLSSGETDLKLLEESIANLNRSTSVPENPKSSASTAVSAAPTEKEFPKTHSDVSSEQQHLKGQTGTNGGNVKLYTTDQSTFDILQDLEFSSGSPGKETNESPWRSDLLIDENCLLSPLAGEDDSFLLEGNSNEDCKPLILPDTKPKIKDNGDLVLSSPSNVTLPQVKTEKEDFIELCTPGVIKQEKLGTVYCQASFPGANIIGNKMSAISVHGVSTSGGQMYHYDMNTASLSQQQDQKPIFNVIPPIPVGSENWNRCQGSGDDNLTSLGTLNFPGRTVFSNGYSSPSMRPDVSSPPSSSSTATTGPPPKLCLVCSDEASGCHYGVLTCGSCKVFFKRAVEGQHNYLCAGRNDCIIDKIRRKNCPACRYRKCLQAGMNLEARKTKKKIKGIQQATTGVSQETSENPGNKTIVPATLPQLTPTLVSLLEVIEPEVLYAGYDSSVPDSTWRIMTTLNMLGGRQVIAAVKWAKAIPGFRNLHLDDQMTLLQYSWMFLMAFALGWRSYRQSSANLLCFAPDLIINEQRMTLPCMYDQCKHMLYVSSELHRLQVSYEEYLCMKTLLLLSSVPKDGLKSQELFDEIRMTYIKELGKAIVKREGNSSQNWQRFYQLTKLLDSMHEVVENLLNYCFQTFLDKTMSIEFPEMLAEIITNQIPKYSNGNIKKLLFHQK
The experiment in a line: Antagonist activity at GR in SW1353/MMTV5 cells assessed as inhibition of dexamethasone-induced luciferase expression. It is filed as functional, cell-based.

Data set [2] has as its target T1, Glucocorticoid receptor. Description: Displacement of [3H]dexamethasone from human recombinant GR. For orientation: Loss of bound radioactivity is the signal in a displacement assay; it reports binding, not function.
Data set [3] can be described thus: Oral bioavailability in rat. The conditions noted are these: in vivo. The data set is classed as ADME, organism-based.

As usually defined, the Ki is the dissociation constant of the complex between target and ligand, obtained from inhibition or displacement. With `COc1ccc(S(=O)(=O)N2CCC3=Cc4c(cnn4-c4ccc(F)cc4)C[C@]3(C)C2)cc1`, the inhibition constant Ki at Glucocorticoid receptor [1] is 178 nM; at Glucocorticoid receptor [2] it was 3.7 nM.
For `C=CCNC[C@]12Cc3cnn(-c4ccc(F)cc4)c3C=C1CCN(S(=O)(=O)c1ccc(C(C)(C)C)cc1)C2` the same measures were 11 nM and 0.9 nM.
As a reminder, the bioavailability is dose-corrected exposure relative to a reference, in per cent. On to `COCCNC[C@]12Cc3cnn(-c4ccc(F)cc4)c3C=C1CCN(S(=O)(=O)c1ccc(C(C)(C)C)cc1)C2`, for which the Ki on Glucocorticoid receptor [1] amounted to 3.1 nM; at Glucocorticoid receptor [2], 1 nM. In addition, the bioavailability in data set [3] worked out at 0%.
For `CS(=O)(=O)N1CCC2=Cc3c(cnn3-c3ccc(F)cc3)CC2(Cc2ccc(F)cc2)C1` (racemic), the Ki on Glucocorticoid receptor [1] was greater than 1000 nM; on Glucocorticoid receptor [2], 13 nM.
With `CC(C)(C)c1ccc(S(=O)(=O)N2CCC3=Cc4c(cnn4-c4ccc(F)cc4)CC3(Cc3ccc(F)cc3)C2)cc1` (racemic), the Ki at Glucocorticoid receptor [1] turned out to be 14 nM; at Glucocorticoid receptor [2], 1.3 nM.
For the compound `CC(C)(C)c1ccc(S(=O)(=O)N2CCC3=Cc4c(cnn4-c4ccc(F)cc4)C[C@]3(CN3CCCC3)C2)cc1`, the Ki on Glucocorticoid receptor [1] is 3.4 nM; at Glucocorticoid receptor [2], 1.1 nM. Also, the bioavailability in data set [3] was found to be 2%.
On to `C[C@]12Cc3cnn(-c4ccc(F)cc4)c3C=C1CCN(S(=O)(=O)c1ccc(F)cc1)C2`, for which the Ki at Glucocorticoid receptor [1] was 293 nM; on Glucocorticoid receptor [2], 9 nM.
For `CC(C)NC[C@]12Cc3cnn(-c4ccc(F)cc4)c3C=C1CCN(S(=O)(=O)c1ccc(C(C)(C)C)cc1)C2`, the Ki on Glucocorticoid receptor [1] was 17 nM; on Glucocorticoid receptor [2] it was 2.1 nM. In data set [3], the bioavailability was found to be 5%.
Consider `O=S(=O)(c1ccccc1)N1CCC2=Cc3c(cnn3-c3ccc(F)cc3)C[C@]2(CO)C1`, for which the Ki on Glucocorticoid receptor [2] is 10 nM.
As for `CC(C)(C)c1ccc(S(=O)(=O)N2CCC3=Cc4c(cnn4-c4ccc(F)cc4)C[C@]3(CN3CCCCC3)C2)cc1`, the figures for the Ki at Glucocorticoid receptor [1] and on Glucocorticoid receptor [2] were 5.8 nM and 1.6 nM, respectively.
For `Cc1ccc(S(=O)(=O)N2CCC3=Cc4c(cnn4-c4ccc(F)cc4)CC3(Cc3ccc(F)cc3)C2)cc1` (racemic) the same measures were 17 nM and 1.5 nM.
Take `O=S(=O)(c1ccc(N2CCOCC2)cc1)N1CCC2=Cc3c(cnn3-c3ccc(F)cc3)CC2(Cc2ccc(F)cc2)C1` (racemic): the Ki on Glucocorticoid receptor [1] came to 11 nM; at Glucocorticoid receptor [2] it was 1.3 nM.
As for `Fc1ccc(CC23Cc4cnn(-c5ccc(F)cc5)c4C=C2CCN(Cc2cccnc2)C3)cc1` (racemic), the Ki at Glucocorticoid receptor [1] is greater than 1000 nM; at Glucocorticoid receptor [2] it was 22 nM.
As for `Cc1ccc(S(=O)(=O)N2CCC3=Cc4c(cnn4-c4ccc(F)cc4)C[C@]3(C)C2)cc1`, the Ki was 96 nM at Glucocorticoid receptor [1] and 2.3 nM on Glucocorticoid receptor [2].
With `COCCOC[C@]12Cc3cnn(-c4ccc(F)cc4)c3C=C1CCN(S(=O)(=O)c1ccc(C(C)(C)C)cc1)C2`, the Ki on Glucocorticoid receptor [1] is 0.6 nM; at Glucocorticoid receptor [2], 0.7 nM. The compound further showed a bioavailability in data set [3] of 0%.
`O=S(=O)(c1ccc(F)cc1)N1CCC2=Cc3c(cnn3-c3ccc(F)cc3)C[C@]2(CN2CCCC2)C1`: the Ki was 8 nM at Glucocorticoid receptor [1] and 1.6 nM at Glucocorticoid receptor [2].
For `CC(C)(C)c1ccc(S(=O)(=O)N2CCC3=Cc4c(cnn4-c4ccc(F)cc4)C[C@]3(COCCO)C2)cc1` the same measures were 8.7 nM and 0.8 nM.
For `Cc1ccccc1S(=O)(=O)N1CCC2=Cc3c(cnn3-c3ccc(F)cc3)C[C@]2(C)C1`, at Glucocorticoid receptor [2], the Ki came out at 22 nM.
For `CC(C)(C)c1ccc(S(=O)(=O)N2CCC3=Cc4c(cnn4-c4ccc(F)cc4)C[C@]3(CNCCO)C2)cc1`, the Ki on Glucocorticoid receptor [1] came out at 28 nM; at Glucocorticoid receptor [2], 2.8 nM.
For `COCCOC[C@]12Cc3cnn(-c4ccc(F)cc4)c3C=C1CCN(S(=O)(=O)c1ccccc1)C2` the same measures were 2.9 nM and 0.5 nM.
Consider `COCCCOC[C@]12Cc3cnn(-c4ccc(F)cc4)c3C=C1CCN(S(=O)(=O)c1ccc(C(C)(C)C)cc1)C2`, for which the Ki came out at 1.6 nM on Glucocorticoid receptor [1] and 0.8 nM on Glucocorticoid receptor [2].
`CCOC[C@]12Cc3cnn(-c4ccc(F)cc4)c3C=C1CCN(S(=O)(=O)c1ccc(C(F)(F)F)cc1)C2` [CORT 108297]: the Ki is 6.8 nM on Glucocorticoid receptor [1] and 0.9 nM on Glucocorticoid receptor [2].
The compound `COCCOC[C@]12Cc3cnn(-c4ccc(F)cc4)c3C=C1CCN(S(=O)(=O)c1ccc(C)cc1)C2` displayed a bioavailability in data set [3] of 8%.
Consider `O=S(=O)(c1ccc(F)cc1)N1CCC2=Cc3c(cnn3-c3ccc(F)cc3)CC2(Cc2ccc(F)cc2)C1` (racemic), for which the Ki on Glucocorticoid receptor [1] was 26 nM; on Glucocorticoid receptor [2] it was 1.4 nM.
For `CN(C)CCNC[C@]12Cc3cnn(-c4ccc(F)cc4)c3C=C1CCN(S(=O)(=O)c1ccc(C(C)(C)C)cc1)C2` the same measures were 60 nM and 3.8 nM.
Consider `CC(C)(C)c1ccc(S(=O)(=O)N2CCC3=Cc4c(cnn4-c4ccc(F)cc4)C[C@]3(CO)C2)cc1`, for which the Ki stood at 47 nM at Glucocorticoid receptor [1] and 1.6 nM on Glucocorticoid receptor [2].
As for `CN(C)C[C@]12Cc3cnn(-c4ccc(F)cc4)c3C=C1CCN(S(=O)(=O)c1ccccc1)C2`, the results for the Ki at Glucocorticoid receptor [1] and at Glucocorticoid receptor [2] were 10 nM and 1.1 nM, respectively.
Turning to `O=C(c1ccccc1)N1CCC2=Cc3c(cnn3-c3ccc(F)cc3)CC2(Cc2ccc(F)cc2)C1` (racemic), the Ki at Glucocorticoid receptor [2] was greater than 1000 nM.
As for `COC[C@]12Cc3cnn(-c4ccc(F)cc4)c3C=C1CCN(S(=O)(=O)c1ccc(C)cc1)C2`, the Ki is 5.7 nM at Glucocorticoid receptor [1] and 0.5 nM at Glucocorticoid receptor [2].
With `O=S(=O)(c1ccccc1)N1CCC2=Cc3c(cnn3-c3ccc(F)cc3)C[C@]2(CN2CCCCC2)C1`, the Ki at Glucocorticoid receptor [1] turned out to be 5.8 nM; at Glucocorticoid receptor [2], 0.8 nM.
For the compound `CC(C)(C)c1ccc(S(=O)(=O)N2CCC3=Cc4c(cnn4-c4ccc(F)cc4)C[C@]3(CN3CCC3)C2)cc1`, the figures for the Ki at Glucocorticoid receptor [1] and at Glucocorticoid receptor [2] were 11 nM and 1.4 nM, respectively. Further, the bioavailability in data set [3] was determined as 4%.
In the case of `C[C@]12Cc3cnn(-c4ccc(F)cc4)c3C=C1CCN(S(=O)(=O)c1ccc(C(F)(F)F)cc1)C2`, the inhibitory constant (Ki) on Glucocorticoid receptor [1] was found to be 78 nM; on Glucocorticoid receptor [2] it was 3.4 nM.
As to `O=S(=O)(N1CCOCC1)N1CCC2=Cc3c(cnn3-c3ccc(F)cc3)CC2(Cc2ccc(F)cc2)C1` (racemic), the Ki is greater than 1000 nM on Glucocorticoid receptor [1] and 26 nM on Glucocorticoid receptor [2].
`CC(C)(C)c1ccc(S(=O)(=O)N2CCC3=Cc4c(cnn4-c4ccc(F)cc4)C[C@]3(COCCC#N)C2)cc1`: the Ki came out at 5.1 nM at Glucocorticoid receptor [1] and 0.8 nM on Glucocorticoid receptor [2]. In addition, the bioavailability in data set [3] came to 2%.
Regarding `CC(C)(C)c1ccc(S(=O)(=O)N2CCC3=Cc4c(cnn4-c4ccc(F)cc4)C[C@]3(COCCN3CCCCC3)C2)cc1`, the Ki at Glucocorticoid receptor [1] was 77 nM; at Glucocorticoid receptor [2] it was 8.6 nM.
Regarding `O=S(=O)(c1ccc(F)cc1)N1CCC2=Cc3c(cnn3-c3ccc(F)cc3)C[C@]2(CO)C1`, the Ki came to 184 nM on Glucocorticoid receptor [1] and 8.6 nM at Glucocorticoid receptor [2].
In the case of `CCOC[C@]12Cc3cnn(-c4ccc(F)cc4)c3C=C1CCN(S(=O)(=O)c1ccc(C(C)(C)C)cc1)C2`, the Ki on Glucocorticoid receptor [1] was 1.9 nM; at Glucocorticoid receptor [2], 0.8 nM.
Consider `C[C@]12Cc3cnn(-c4ccc(F)cc4)c3C=C1CCN(S(=O)(=O)c1ccccc1F)C2`, for which the Ki at Glucocorticoid receptor [2] was determined as 34 nM.
Regarding `CC(C)(C)c1ccc(S(=O)(=O)N2CCC3=Cc4c(cnn4-c4ccc(F)cc4)C[C@]3(Cc3ccccc3)C2)cc1`, the values for the Ki on Glucocorticoid receptor [1] and on Glucocorticoid receptor [2] were 4.7 nM and 1.4 nM, respectively.
As for `CN(C)C[C@]12Cc3cnn(-c4ccc(F)cc4)c3C=C1CCN(S(=O)(=O)c1ccc(C(C)(C)C)cc1)C2`, the Ki worked out at 6.9 nM at Glucocorticoid receptor [1] and 1.2 nM at Glucocorticoid receptor [2]. Besides, the bioavailability in data set [3] is 0%.
Take `C[C@]12Cc3cnn(-c4ccc(F)cc4)c3C=C1CCN(S(=O)(=O)c1ccc(N)cc1)C2`: the inhibition constant (Ki) at Glucocorticoid receptor [1] was greater than 1000 nM; at Glucocorticoid receptor [2], 17 nM.
For `O=S(=O)(c1ccccc1)N1CCC2=Cc3c(cnn3-c3ccc(F)cc3)CC2(Cc2ccc(F)cc2)C1` (racemic), the figures for the Ki on Glucocorticoid receptor [1] and on Glucocorticoid receptor [2] were 36 nM and 2.2 nM, respectively.
As for `CN1CCN(C[C@]23Cc4cnn(-c5ccc(F)cc5)c4C=C2CCN(S(=O)(=O)c2ccc(C(C)(C)C)cc2)C3)CC1`, the Ki on Glucocorticoid receptor [1] amounted to 85 nM; on Glucocorticoid receptor [2], 6.7 nM.
Consider `CCNC[C@]12Cc3cnn(-c4ccc(F)cc4)c3C=C1CCN(S(=O)(=O)c1ccc(C(C)(C)C)cc1)C2`, for which the Ki on Glucocorticoid receptor [1] amounted to 16 nM; on Glucocorticoid receptor [2], 2.4 nM. Also, the bioavailability in data set [3] came out at 0%.
In the case of `CCCOC[C@]12Cc3cnn(-c4ccc(F)cc4)c3C=C1CCN(S(=O)(=O)c1ccc(C(F)(F)F)cc1)C2`, the figures for the Ki at Glucocorticoid receptor [1] and at Glucocorticoid receptor [2] were 9 nM and 0.9 nM, respectively.
On to `O=S(=O)(c1ccccc1)N1CCC2=Cc3c(cnn3-c3ccc(F)cc3)C[C@]2(CN2CCCC2)C1`, for which the Ki was 4.9 nM at Glucocorticoid receptor [1] and 1.5 nM at Glucocorticoid receptor [2].
For `CN(C)C[C@]12Cc3cnn(-c4ccc(F)cc4)c3C=C1CCN(S(=O)(=O)c1ccc(F)cc1)C2` the same measures were 29 nM and 2.6 nM.
In the case of `CCN(CC)C[C@]12Cc3cnn(-c4ccc(F)cc4)c3C=C1CCN(S(=O)(=O)c1ccc(C(C)(C)C)cc1)C2`, the Ki on Glucocorticoid receptor [1] stood at 14 nM; at Glucocorticoid receptor [2], 1.7 nM.
